Converted amounts (≈) assume the structure as drawn.
Columns and labels:
Type in all cases: cell-based
human colon HCT116 cells = assay: HCT-116 cytotoxicity assay; conditions: human colon HCT-116 cells; concentration required to inhibit cell proliferation by 50% vs untreated cells
Source text: (§1) Thus, the invention provides a method of treating a cancer patient by administering to the patient a compound of the invention in an amount sufficient to reduce or inhibit proliferation of cancer cells in the patient.

melanoma MALME-3M cells = assay: in vitro cytotoxicity at the National Cancer Institute (NCI 60 cell panel), melanoma; conditions: Homo sapiens, inhibition of cell proliferation by 50%
Source text: as §1

[1] = tested on: breast cancer cells βT-549; assay: in vitro cytotoxicity at the National Cancer Institute (NCI 60 cell panel), breast cancer βT-549; conditions: inhibition of cell proliferation by 50%
Source text: as §1

[2] = tested on: breast cancer cells T-47D; assay: in vitro cytotoxicity at the National Cancer Institute (NCI 60 cell panel), breast cancer T-47D; conditions: Homo sapiens, T47D; breast cancer T-47D (printed T-470); inhibition of cell proliferation by 50%
Source text: as §1

[3] = tested on: tumor cell lines in the NCI 60 cell panel; assay: cytotoxic effect in the NCI 60 cell panel
Source text: as §1

CC1(C)C=Cc2c(ccc3c2[N+]([O-])=C2C3=CC34NC(=O)C5(CCCN5C3=O)CC4C2(C)C)O1 (stereo not drawn) [Avrainvillamide]
IC50 (human colon HCT116 cells): 2 µg/mL (≈ 4.49 µM) | IC50 (melanoma MALME-3M cells): 53 nM | IC50 [1]: 34 nM | IC50 [2]: 72 nM | selective in vitro cytotoxicity towards melanoma and breast cancers ([3]; MALME-3M, βT-549 and T-470): significant selective in vitro cytotoxicity | cytotoxic effect against a variety of tumor cell lines ([3]; NCI 60 cell panel): dose dependent cytotoxic effect

— patent US6066635A, “Avrainvillamide, a cytotoxic marine natural product, and derivatives thereof” (University of California, San Diego, priority 1999, dated 2000)
